In experiment [1] the test system is MDA-MB-231 human breast carcinoma cells. Nature of the experiment: Cells in pro-metaphase in orthotopic breast tumor xenografts. The settings on record: systemic KG5 50 mg/Kg, after three days. The class given is in vivo, mice. The source says:
FIG. 34. CRAF is required for mitotic progression: (a) Cell cycle analysis of WT and CRAF−/− MEFs. Left graph, Cells in G2/M were quantified by flow cytometry. Right graph, Cells at pro-metaphase were quantified using confocal microscopy. Error bars represent s.d. (n=4); * two tailed p value=0.0079 (left graph) and p=0.0055 (right graph) using a Mann Whitney U test. (b) WT and CRAF−/− MEFs were synchronized at pro-metaphase with a thymidine-nocodazole block as described in these Methods, and subsequently released from the blockade and allowed to progress through mitosis. Quantification of cells in G2/M was performed by flow cytometry. Error bars represent s.d. (n=3). (c) Confocal microscopy images of WT and CRAF−/− cells progressing through mitosis at 0, 60 and 360 minutes after release from pro-metaphase blockade. Cells were stained for α-tubulin (in red) and DNA (TOPRO-3™ in blue). Scale bar, 10 μm. […] Cell cycle analysis and quantification of cells in G2/M was performed by flow cytometry. […] (e) Immunohistochemical staining of phospho-5338 CRAF and phospho-histone H3 (mitotic marker) in orthotopic breast and tumor xenografts untreated or treated systemically with KG5 (50 mg/Kg for 3 days Scale bar, 50 μm. […]. Circles indicate cells in pro-metaphase. Right, Quantification of cells in pro-metaphase. Error bars represent s.d. (n=12); * two tailed p value=0.006 using Student T test. […]

In experiment [2] the target is RAF dimerization (BRAF and CRAF) (Homo sapiens, UniProt P04049). Nature of the experiment: RAF dimerization, immunoblot of BRAF and CRAF immunoprecipitates from XPA-1 cells. The arrangement: immunoblot analysis of BRAF and CRAF immunoprecipitates from XPA-1 cells; endogenous in cells; host or cells: XPA-1. The class given is cell-based. The procedure:
FIGS. 6 and 7 illustrate immunoblot analysis of CRAF immunoprecipitated from XPA-1 cells treated with KG5 and KG38.
FIG. 14 illustrates immunoblot analysis of BRAF and CRAF immunoprecipitates from XPA-1 cells treated with PD0325901, Sorafenib, L-779450, PLX4720, KG5 or KG1.
Immunoprecipitation and Immunoblot Analysis Cells were lysed in either NP40 lysis buffer (150 mM NaCl, 50 mM Tris Base pH 7.4, 1% NP40) or RIPA buffer (50 mM Tris pH 7.4, 100 mM NaCl, 0.1% SDS) supplemented with complete protease inhibitor mixture (Roche), 50 mM NaF and 1 mM Na3VO4 and centrifuged at 13,000×g for 10 min at 4° C. Protein concentration was determined by BCA assay. […] of protein were immunoprecipitated with […] of anti-Flag (Sigma), anti-CRAF (BD Pharmingen), anti-Plk1 (Abcam), anti-γ-Tubulin (sigma) or anti-cenpF (Santa Cruz) antibodies overnight at 4° C. followed by capture with 25 μl of protein A/G (Pierce). Beads were washed five times, eluted in boiling Laemmli buffer, resolved on 10% SDS-PAGE and immunoblotting was performed with anti-Plk1 antibody (Abcam), anti-CRAF antibody (BD Pharmingen), anti-Aurora A (Abcam), anti-phospho-S338 CRAF (Cell Signaling), anti-phospho-T210 Plk1 or anti-phospho-T288 Aurora A (Cell signaling) diluted 1:1000. For immunoblot analysis, […] of protein was boiled in […]

Sequence of RAF dimerization (BRAF and CRAF) (P04049 whole entry): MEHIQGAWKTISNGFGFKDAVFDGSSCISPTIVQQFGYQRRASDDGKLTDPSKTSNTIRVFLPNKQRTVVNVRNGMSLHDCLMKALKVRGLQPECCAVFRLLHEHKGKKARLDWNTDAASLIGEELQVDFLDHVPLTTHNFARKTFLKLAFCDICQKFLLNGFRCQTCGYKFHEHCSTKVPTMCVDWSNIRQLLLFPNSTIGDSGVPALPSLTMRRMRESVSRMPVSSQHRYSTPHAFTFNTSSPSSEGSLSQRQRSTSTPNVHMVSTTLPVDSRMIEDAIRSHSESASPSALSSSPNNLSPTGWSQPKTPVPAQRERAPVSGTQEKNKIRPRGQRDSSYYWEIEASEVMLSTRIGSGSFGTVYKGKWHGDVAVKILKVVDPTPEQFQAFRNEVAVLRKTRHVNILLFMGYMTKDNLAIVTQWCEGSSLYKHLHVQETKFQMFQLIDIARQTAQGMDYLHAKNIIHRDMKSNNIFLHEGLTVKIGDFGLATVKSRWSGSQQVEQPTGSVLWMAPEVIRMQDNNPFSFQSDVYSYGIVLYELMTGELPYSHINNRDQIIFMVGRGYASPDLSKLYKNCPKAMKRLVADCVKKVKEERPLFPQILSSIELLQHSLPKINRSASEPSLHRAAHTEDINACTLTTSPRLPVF

Regarding `CSc1nc(N)cc(Oc2ccc(-c3nnc(Nc4cccc(C(F)(F)F)c4)[nH]3)cc2)n1` [KG5], the “cells at pro-metaphase in orthotopic breast tumor tissues” value in experiment [1] is listed as “accumulation of cells at pro-metaphase”. In experiment [2], the RAF dimerization result is on record as “prevents RAF dimerization”.
